Data published in ChEMBL document CHEMBL1133198, “Prenylated xanthones as potential P-glycoprotein modulators” (Bioorg Med Chem Lett, 2000).

assay: Binding affinity of compound to P-glycoprotein recombinant domain of prenylated xanthones was evaluated

Kd | Structure (SMILES)
0.1 µM | COCCOCOc1cc(O)c2c(=O)cc(-c3ccccc3)oc2c1CC=C(C)C
0.1 µM | C=CC(C)(C)c1c(OCOCCOC)cc2oc(-c3ccccc3)cc(=O)c2c1O
6.1 µM | COCCOCOc1cc(OCC=C(C)C)c2c(=O)cc(-c3ccccc3)oc2c1

Continued, compound first:

Structure (SMILES) | Kd
COc1cc2oc3ccc(OC)c(OC)c3c(=O)c2c(O)c1CC=C(C)C | 0.39 µM
COc1cc(O)c2c(=O)c3c(OC)c(OC)ccc3oc2c1CC=C(C)C | 0.59 µM
COCCOCOc1cc(O)c2c(=O)cc(-c3ccccc3)oc2c1 | 8.05 µM
C=CC(C)(C)c1c(OC)cc2oc3ccc(OC)c(OC)c3c(=O)c2c1O | 0.25 µM
COc1cc(OCC=C(C)C)c2c(=O)c3c(OC)c(OC)ccc3oc2c1 | 13.9 µM
COc1cc2oc3ccc(OC)c(OC)c3c(=O)c2c2c1C(C)(C)C(C)O2 (stereo not given) | 24.8 µM
COc1cc(O)c2c(=O)c3c(OC)c(OC)ccc3oc2c1 [DECUSSATIN] | 28.8 µM
